Data published in ChEMBL document CHEMBL6134842, “Acetal functionalized iminosugars for targeting β-glucocerebrosidase modulation” (Eur J Med Chem, 2025).
Where a chain is given by its changes, count along the chain named. Each block holds one molecule with its values, some of them ahead of it. Activity calls are given as the source filed them. The calls are words filed in the database; no cut-off is given here.

How the values were obtained:
[1] = test system: Lysosomal acid glucosylceramidase (Homo sapiens), P04062 [UNDEFINED MUTATION]; test: Modulation of GCase N370S/RecNcil mutant in Gaucher patient-derived human fibroblasts assessed as fold increase in GCase rescue at 20 uM incubated for 4 days by fluorescence based lysed cell assay relative to control; conditions: Fibroblast, filed as modulator, time 4.0 day
[2] = test system: T1, Lysosomal acid glucosylceramidase (Homo sapiens), P04062 [L483P]; test: Modulation of GCase L444P/L444P mutant in Gaucher patient-derived human fibroblasts assessed as GCase rescue at 10 to 100 uM incubated for 4 days by fluorescence based lysed cell assay; conditions: Fibroblast, dose 10-100 µM, time 4.0 day
T1 sequence (whole entry): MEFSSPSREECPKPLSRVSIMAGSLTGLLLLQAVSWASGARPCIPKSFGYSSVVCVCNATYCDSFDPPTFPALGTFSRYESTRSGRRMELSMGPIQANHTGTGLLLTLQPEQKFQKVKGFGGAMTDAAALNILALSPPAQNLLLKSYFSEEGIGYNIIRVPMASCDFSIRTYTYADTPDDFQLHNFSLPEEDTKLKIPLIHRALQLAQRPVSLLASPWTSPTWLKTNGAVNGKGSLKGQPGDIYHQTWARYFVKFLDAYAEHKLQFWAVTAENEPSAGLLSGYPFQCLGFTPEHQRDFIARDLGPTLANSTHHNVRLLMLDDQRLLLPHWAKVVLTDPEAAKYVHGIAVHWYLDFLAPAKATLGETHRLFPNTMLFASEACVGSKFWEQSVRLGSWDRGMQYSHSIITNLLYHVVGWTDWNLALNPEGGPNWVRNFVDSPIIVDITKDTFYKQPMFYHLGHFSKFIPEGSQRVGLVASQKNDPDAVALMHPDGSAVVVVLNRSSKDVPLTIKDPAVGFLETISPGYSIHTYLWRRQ

[3] = target: T2, Lysosomal acid glucosylceramidase (Homo sapiens) (UniProt P04062); test: Inhibition of lysosomal GCase in human leucocytes using 4-methylumbelliferyl-beta-D-glucopyranoside as substrate at 1 mM measured 24 hrs by fluorescence based assay relative to control; assay type: cell-based; conditions: Leucocyte
T2 sequence (whole entry): T1 sequence (whole entry) with P483L

[4] = target: T2, Lysosomal acid glucosylceramidase (Homo sapiens); test: Inhibition of lysosomal GCase in human leucocytes using 4-methylumbelliferyl-beta-D-glucopyranoside as substrate at 1 mM measured after 12 hrs by fluorescence based assay relative to control; assay type: cell-based; conditions: Leucocyte
[5] = target: T2, Lysosomal acid glucosylceramidase (Homo sapiens); test: Non-competitive inhibition of lysosomal GCase in human leucocytes using 4-methylumbelliferyl-beta-D-glucopyranoside as substrate assessed as unchanged Km incubated for 1 hr by fluorescence based assay; assay type: cell-based; conditions: Leucocyte
[6] = test system: T1, Lysosomal acid glucosylceramidase (Homo sapiens), P04062 [L483P]; test: Modulation of GCase L444P/L444P mutant in Gaucher patient-derived human fibroblasts assessed as fold increase in GCase rescue at 100 uM incubated for 4 days by fluorescence based lysed cell assay relative to control; conditions: Fibroblast, filed as modulator, time 4.0 day
[7] = test system: Lysosomal acid glucosylceramidase (Homo sapiens), P04062 [UNDEFINED MUTATION]; test: (§1) Modulation of GCase N370S/RecNcil mutant in Gaucher patient-derived human fibroblasts using 4-methylumbelliferyl beta-D-glucopyranoside as substrate assessed as fold increase in GCase rescue at 30 uM preincubated for 4 days followed by compound washout and substrate addition measured after 2 hrs by fluorescence based intact cell enzyme assay relative to control; conditions: Fibroblast, filed as modulator, time 4.0 day
[8] = target: T2, Lysosomal acid glucosylceramidase (Homo sapiens); test: Non-competitive inhibition of lysosomal GCase in human leucocytes using 4-methylumbelliferyl-beta-D-glucopyranoside as substrate assessed as reduction in apparent Vmax incubated for 1 hr by fluorescence based assay; assay type: cell-based; conditions: Leucocyte
[9] = target: T2, Lysosomal acid glucosylceramidase (Homo sapiens); test: Inhibition of lysosomal GCase in human leucocytes using 4-methylumbelliferyl-beta-D-glucopyranoside as substrate at 1 mM measured 36 hrs by fluorescence based assay relative to control; assay type: cell-based; conditions: Leucocyte
[10] = Stability of compound at pH 5.8 assessed as compound remaining measured after 1 hr by 1H NMR spectroscopy; assay type: physicochemical; conditions: buffer, read-out: Stability
[11] = target: T2, Lysosomal acid glucosylceramidase (Homo sapiens); test: Inhibition of lysosomal GCase in human leucocytes using 4-methylumbelliferyl-beta-D-glucopyranoside as substrate at 1 mM measured immediately by fluorescence based assay relative to control; assay type: cell-based; conditions: Leucocyte
[12] = Stability of compound at pH 7 assessed as compound remaining measured after 4 days by 1H NMR spectroscopy; assay type: physicochemical; conditions: buffer, time 4 day, read-out: Stability
[13] = Stability of compound at pH 5.8 assessed as compound hydrolysis measured after 6 days by 1H NMR spectroscopy; assay type: physicochemical; conditions: buffer, pH 5.8, 144 h; time 6 day
[14] = target: T3, Lysosomal acid glucosylceramidase (Homo sapiens, UniProt P04062); test: Non-competitive inhibition of lysosomal GCase in human leucocytes using 4-methylumbelliferyl-beta-D-glucopyranoside as substrate incubated for 1 hr by fluorescence based assay; assay type: cell-based, Leucocyte
T3 sequence (P04062 whole entry): T1 sequence (whole entry) with P483L

[15] = target: T2, Lysosomal acid glucosylceramidase (Homo sapiens); test: Inhibition of lysosomal GCase in human leucocytes using 4-methylumbelliferyl-beta-D-glucopyranoside as substrate at 1 mM incubated for 1 hr by fluorescence based assay relative to control; assay type: cell-based; conditions: Leucocyte
[16] = target: T2, Lysosomal acid glucosylceramidase (Homo sapiens); test: Inhibition of lysosomal GCase in human leucocytes using 4-methylumbelliferyl-beta-D-glucopyranoside as substrate incubated for 1 hr by Lineweaver-burk plot analysis; assay type: cell-based; conditions: Leucocyte
[17] = test system: T1, Lysosomal acid glucosylceramidase (Homo sapiens), P04062 [L483P]; test: as §1, with “L444P/L444P” for “N370S/RecNcil”; conditions: Fibroblast, filed as modulator, time 4.0 day
[18] = test system: Lysosomal acid glucosylceramidase (Homo sapiens), P04062 [UNDEFINED MUTATION]; test: Modulation of GCase N370S/RecNcil mutant in Gaucher patient-derived human fibroblasts assessed as fold increase in GCase rescue at 100 uM incubated for 4 days by fluorescence based lysed cell assay relative to control; conditions: Fibroblast, filed as modulator, time 4.0 day
[19] = test system: Lysosomal acid glucosylceramidase (Homo sapiens), P04062 [UNDEFINED MUTATION]; test: Modulation of GCase N370S/RecNcil mutant in Gaucher patient-derived human fibroblasts assessed as fold increase in GCase rescue at 10 uM incubated for 4 days by fluorescence based lysed cell assay relative to control; conditions: Fibroblast, filed as modulator, time 4.0 day
[20] = test system: T1, Lysosomal acid glucosylceramidase (Homo sapiens), P04062 [L483P]; test: Modulation of GCase L444P/L444P mutant in Gaucher patient-derived human fibroblasts assessed as fold increase in GCase rescue at 50 uM incubated for 4 days by fluorescence based lysed cell assay relative to control; conditions: Fibroblast, filed as modulator, time 4.0 day
[21] = test system: T1, Lysosomal acid glucosylceramidase (Homo sapiens), P04062 [L483P]; test: Modulation of GCase L444P/L444P mutant in Gaucher patient-derived human fibroblasts assessed as GCase rescue at 10 uM incubated for 4 days by fluorescence based lysed cell assay; conditions: Fibroblast, filed as modulator, time 4.0 day
[22] = test system: Lysosomal acid glucosylceramidase (Homo sapiens), P04062 [UNDEFINED MUTATION]; test: Modulation of GCase N370S/RecNcil mutant in Gaucher patient-derived human fibroblasts assessed as fold increase in GCase rescue at 50 uM incubated for 4 days by fluorescence based lysed cell assay relative to control; conditions: Fibroblast, filed as modulator, time 4.0 day
[23] = Antioxidant activity assessed as inhibition of DPPH radical scavenging activity measured after 10 mins relative to control; assay type: functional
[24] = Antioxidant activity assessed as DPPH radical scavenging activity at 400 umol measured after 10 mins relative to control; assay type: functional; conditions: dose 400.0 µmol
[25] = test system: Lysosomal acid glucosylceramidase (Homo sapiens), P04062 [UNDEFINED MUTATION]; test: Modulation of GCase N370S/RecNcil mutant in Gaucher patient-derived human fibroblasts assessed as GCase rescue at 10 to 100 uM incubated for 4 days by fluorescence based lysed cell assay; conditions: Fibroblast, dose 10-100 µM, time 4.0 day
[26] = test system: Lysosomal acid glucosylceramidase (Homo sapiens), P04062 [UNDEFINED MUTATION]; test: as §1, with “as” for “as fold increase in”, “10 to 100” for “30”, “assay” for “assay relative to control”; conditions: Fibroblast, dose 10-100 µM, time 4.0 day
[27] = Antioxidant activity assessed as DPPH radical scavenging activity at 200 umol measured after 10 mins relative to control; assay type: functional; conditions: dose 200.0 µmol

Sequence of Lysosomal acid glucosylceramidase (Homo sapiens), P04062 [UNDEFINED MUTATION] (P04062 whole entry, looked up, stated change not applied): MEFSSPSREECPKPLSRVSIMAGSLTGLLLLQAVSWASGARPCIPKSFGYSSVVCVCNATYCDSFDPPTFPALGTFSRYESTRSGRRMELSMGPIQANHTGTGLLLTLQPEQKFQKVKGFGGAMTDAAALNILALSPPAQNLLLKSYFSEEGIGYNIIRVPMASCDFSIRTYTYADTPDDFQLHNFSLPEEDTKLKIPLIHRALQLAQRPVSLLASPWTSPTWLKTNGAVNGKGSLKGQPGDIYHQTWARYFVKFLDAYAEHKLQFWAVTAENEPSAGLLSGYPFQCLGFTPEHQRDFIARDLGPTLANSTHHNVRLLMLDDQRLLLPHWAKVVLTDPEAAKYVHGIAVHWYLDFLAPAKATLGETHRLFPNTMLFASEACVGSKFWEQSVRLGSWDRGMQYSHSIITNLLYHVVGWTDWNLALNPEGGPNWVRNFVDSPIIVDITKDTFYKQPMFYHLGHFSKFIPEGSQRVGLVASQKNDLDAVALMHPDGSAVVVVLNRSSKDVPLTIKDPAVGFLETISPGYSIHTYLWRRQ

inhibition [3]: 80% | inhibition [4]: 77% | inhibition [5]: Active | fold change (FC) [6]: 1.56 | fold change (FC) [7]: 1.46 | inhibition [8]: Active | inhibition [9]: 76% | remaining at 1 h [10]: > 95% | inhibition [11]: 80% | remaining at 96 h [12]: > 95% | Stability [13]: Stable | IC50 [14]: 100 µM | inhibition [15]: 75% | fold change (FC) [17]: 1.26 | fold change (FC) [18]: 1.83
SMILES: OC1[C@H](O)CN(CC[C@H]2COC(c3ccc(Br)cc3)O2)C[C@H]1O (some centres not stated)
inhibition [16]: Active; The Secondary Plot Was Concave Upward, Rather Than Linear, Thus Confirming That Inhibitory Effect Arises From The Binding Of More Than One Molecule Of Compound On Enzyme Surface; Not Attributable To A Cooperativity Phenomenon

fold change (FC) [20]: 2.15 | fold change (FC) [21]: 1.24 | fold change (FC) [19]: 2.06 | fold change (FC) [22]: 1.92
SMILES: CCCCCCCCCCCCOC1OC[C@H](CCN2C[C@@H](O)C(O)[C@H](O)C2)O1 (some centres not stated)

fold change (FC) [20]: 2.11 | fold change (FC) [21]: 2.03 | fold change (FC) [18]: 1.61
SMILES: OC1[C@H](O)CN(CC[C@H]2COC(OCc3ccc(-c4ccccc4)cc3)O2)C[C@H]1O (some centres not stated)

remaining at 1 h [10]: 82% | remaining at 96 h [12]: 61% | Activity [2]: inactive | inhibition [15]: 70% | Activity [25]: inactive
SMILES: COc1cc(C2OC[C@H](CCN3C[C@@H](O)C(O)[C@H](O)C3)O2)ccc1O (some centres not stated)
Activity [24]: 14%

remaining at 1 h [10]: > 95% | remaining at 96 h [12]: > 95% | Stability [13]: Stable | IC50 [14]: 300 µM | Activity [2]: inactive | inhibition [15]: 77% | fold change (FC) [18]: 1.6
SMILES: O=[N+]([O-])c1ccc(C2OC[C@H](CCN3C[C@@H](O)C(O)[C@H](O)C3)O2)cc1 (some centres not stated)

inhibition [3]: 55% | inhibition [4]: 69% | Activity [26]: inactive | fold change (FC) [20]: 1.3 | inhibition [9]: 47% | remaining at 1 h [10]: 87% | inhibition [11]: 75% | remaining at 96 h [12]: 72% | inhibition [15]: 84% | fold change (FC) [18]: 1.5
SMILES: COc1cc(/C=C/C2OC[C@H](CCN3C[C@@H](O)C(O)[C@H](O)C3)O2)ccc1O (some centres not stated)
Activity [27]: 67%

The next lines start with the molecule.

SMILES: CCCCOC1OCC(CNC(=S)N2C[C@H](O)[C@@H](O)[C@H](O)[C@H]2CO)O1 (some centres not stated)
fold change (FC) [1]: 1.5 | Activity [2]: inactive

SMILES: OC[C@H]1CNC[C@@H](O)[C@@H]1O
fold change (FC) [19]: 2

SMILES: Cc1cc(C(C)(C)C)c(O)c(C(C)(C)C)c1
inhibition [23]: > 95%

SMILES: Nc1c(Br)cc(Br)cc1CN[C@H]1CC[C@H](O)CC1
fold change (FC) [20]: 1.3
